“And” between values parts separate entries of the source, which are not always exact repeats. Identical values can stand only once.

What is called half-life is the time needed for the level to fall by half in the phase considered.

For series [1], the system named is HO-1. In words: Cardiac HO-1 mRNA and protein after N-Mgb, SnPP or both. The series is classed as in vivo, mice. Particulars: 18 h after Rx treatment. As to the method: (§1) Thirty-two mice were divided into 4 equal groups: (1) control mice; (2) mice treated with 1 mg of N-Mgb injection (as a bolus through the tail vein); (3) mice treated with […] of SnPP (via tail vein); and (4) mice treated with combined N-Mgb 1 SnPP. After either 4 hours (n=16) or 18 hours (n=16), the mice were deeply anesthetized with pentobarbital (50 mg/kg), the abdomen was opened through a midline abdominal incision, and the kidneys were removed. To determine potential effects on extrarenal organs, a liver lobe and the heart were also removed. The tissues were iced and then extracted for protein and RNA (RNeasy Plus Mini; Qiagen, Valencia, Calif.) and subjected to enzyme linked immunosorbent assay (ELISA) and reverse transcriptase polymerase chain reaction (RT-PCR) for HO-1, haptoglobin, and IL-10 protein and messenger RNAs (mRNAs). Zager et al. J Am Soc Nephrol 2014;25:998-1012; Zager et al. Am J Physiol 2012;303:F139-48. As an assessment of renal function, control mice and the 18 hour after N-Mgb+SnPP—treated mice had blood urea nitrogen (BUN) and plasma creatinine levels measured. Additionally, transverse 10% formalin fixed kidney sections ([…]) were cut and stained with hematoxylin and eosin (H&E) and periodic acid Schiff (PAS) to further assess potential injury.

The conditions of series [2]: Nath et al., J. Clin. Invest. 1992; cited from earlier work.
For a further series, the system named is IL-10. In words: Renal cortical IL-10 mRNA and protein after N-Mgb, SnPP or both. The series is classed as in vivo, mice. Here is the method: as §1
The conditions of series [3]: Berglund et al. Hepatology 1988; cited from earlier work.
For series [4], the system named is HO-1. In words: Renal cortical HO-1 protein (ELISA) after IV myoglobin, SnPP or both. The series is classed as in vivo, mice. Particulars: Cortex, 4 hr IV, 1 mg Myoglobin, 1 μmole SnPP. The source says:
The Glycerol Model of AKI. This is a widely used model of rhabdomyolysis-induced AKI that has been employed worldwide for 50 years. The model was used to test whether prophylactic interventions confer protection against AKI. Basically, the protocol is as follows: Male CD-1 mice (35-45 grams), obtained from Charles River Laboratories, Wilmington, Mass. were studied. Mice were maintained under standard vivarium conditions and generally housed for 1-3 weeks prior to study. The mice were placed in a cylindrical restraining cage, and then were given a tail vein injection of the test substances (see below) or test substance vehicle. The mice were then returned to their cages. Eighteen hours (hrs) later, the mice were briefly anesthetized by isoflurane inhalation, and given an intramuscular injection of hypertonic (50%) glycerol in a dose of 9 ml/Kg body weight. The dose is divided in two, with half injected into the muscle of each of the hind limbs. The mice were then returned to their cages. Eighteen hrs later, the mice were deeply anesthetized with pentobarbital (50-100 mg/Kg), the abdominal cavity was opened through a midline abdominal incision, a blood sample was obtained from the abdominal vena cava and the kidneys were resected. A kidney cross section was obtained and fixed in formalin for subsequent histologic analysis. The terminal blood samples were analyzed for BUN and creatinine, using commercially available assay kits. The remaining kidney tissue was subjected to cortical dissection, and the cortical tissues were then extracted for protein and RNA. The protein samples were saved for analysis of HO-1 levels, and the RNA samples were subjected to RT-PCR to quantify HO-1 mRNA as well as levels of other stress gene mRNAs (e.g. NGAL, haptoglobin, hemopexin, hepicidin).
Myoglobin+SnPP: To 5 mg of dry myoglobin was added 0.9 ml of PBS+0.1 ml of a stock SnPP solution (50 umole/ml). The resulting final concentrations were 5 mg/ml myoglobin+5 umoles/ml of SnPP. The tail vein was injected with 200 ul of this solution, which equals 1 mg myoglobin+1 umole SnPP. […]
Four hr post myoglobin vs myoglobin+SnPP vs SnPP alone experiments. To confirm that the myoglobin+SnPP has a synergistic effect in inducing HO-1 mRNA and HO-1 protein levels, each of the above combinations have been administered alone via tail vein injection. […] For additional information regarding methods, see Zager et al., Am J Physiol Renal Physiol. 2014 Jul. 30. Pii.

Series [5] can be described thus: Maleate model of AKI (FeS, SnPP, FeS+SnPP). The series is classed as in vivo, mice. Particulars: IV 1 mg FeS and/or 1 μmole SnPP 18 hrs before IP Na maleate 800 mg/Kg; 18 hrs later. The text has this: Effects of Fe sucrose (FeS)/tin protoporphyrin (SnPP) on AKI severity. Maleate model of AKI. When injected into rodents, maleate undergoes relatively selective proximal tubule cell uptake via organic anion transporters. Once intracellular accumulation occurs, maleate is a preferred substrate for succinyl-CoA:3-oxoacid CoA transferase. […] Ample levels of CoA are essential for fatty acid “activation”, allowing for their subsequent metabolism through the Krebs cycle, yielding ATP. In the absence of this process, proximal tubule ATP depletion and cell injury result. Additionally, maleate conjugates the sulfhydryl group of glutathione (GSH), culminating in GSH depletion and potential oxidant tubular stress.
The following experiment tested whether FeS, SnPP or combined FeS+SnPP can mitigate this form of acute kidney injury (AKI). Twenty seven mice were subjected to 200 μL IV tail injections of one of the following: 1) vehicle (phosphate buffered saline, PBS; n, 10); 2) 1 mg FeS (American Regent (Shirley, N.Y.; n, 3); 3) 1 μmole SnPP (Frontier Scientific, Logan, Utah; n 7), or FeS+SnPP, n, 7). Eighteen hrs later, all mice received an IP injection of Na maleate (800 mg/Kg; in 500 ul of PBS). […] The severity of kidney injury was assessed by determining plasma blood urea nitrogen (BUN) and plasma creatinine (PCr) concentrations.

The conditions of series [6]: Berglund et al.; Kappas et al.; Reddy et al.; cited from earlier work.

`C=Cc1c2[n-]c(c1C)/C=c1\[n-]/c(c(C)c1C=C)=C\c1[n-]c(c(CCC(=O)O)c1C)C=c1[n-]/c(c(C)c1CCC(=O)O)=C\2.[Sn+4]` [SnPP, Sn-protoporphyrin, reference compound]: in the series on HO-1 [1], the “Cardiac mRNA HO-1” value stood at 0.09 ± 0.03. Further, the “effect on kidney dysfunction” value in series [2] is recorded as “exacerbated kidney dysfunction”. Also, in the series with IL-10 (4 hours after injection), the “increase in renal IL-10 mRNA” value was “either minimal or no impact”. Moreover, the “increase in renal IL-10 protein” value in the series with IL-10 (18 hours after injection) is listed as “absence of IL-10 protein increases”. Further, the “Kidney IL-10 (protein)” value in the series with IL-10 (renal cortex, 4 h after Rx treatment) came out at 550 ± 86. Besides, the half-life in series [3] was 2 to 4 h. For the same compound, the “HO-1 Protein Expression (by ELISA), Average” value in the series with HO-1 [4] (average) is on record as 34.4 ng HO-1/mg protein. Moreover, in the series with HO-1 [4] (single animals), the “HO-1 Protein Expression (by ELISA), individual mice” value was 32.2 ng HO-1/mg protein and 31.5 ng HO-1/mg protein and 20.5 ng HO-1/mg protein and 53.6 ng HO-1/mg protein. Further, the “reductions in BUN/PCr concentrations, maleate-induced AKI” value in series [5] is given as “Neither SnPP alone nor FeS alone significantly altered the severity of renal injury”. The tolerability in humans result in series [6] is listed as “well tolerated in humans”.
